Data taken from publication PMC6687188, “Novel lactate dehydrogenase inhibitors with in vivo efficacy against Cryptosporidium parvum” (PLoS Pathogens, 2019).
Positions of bridges follow the written chain, without caps; N, C: chain ends. Non-standard residues stand in square brackets, D forms with d. Residues, ends and D or L forms follow the SMILES beside them. ξ: configuration not given here. *: point of attachment. ξNMePhe(4-NMe2) = CNC(Cc1ccc(N(C)C)cc1)C(=O)O; Picolinoyl(3-OH) = O=C(c1ncccc1O)*; ξPip(4-oxo) = O=C1CCNC(C(=O)O)C1; Phg = N[CH](C(=O)O)c1ccccc1; Abu = CC[CH](N)C(=O)O

target: recombinant CpLDH protein (Cryptosporidium parvum, UniProt Q9GT92, F198L/K295E/R251K)

| Structure (SMILES) | MEAN CpLDH INHIBITION (%) |
| --- | --- |
| CC1=C\C(O)CC(=O)Cc2nc(co2)C(=O)N2CCC=C2C(=O)OC(C(C)C)C(C)/C=C/C(=O)NC/C=C\1.CCC1NC(=O)C(NC(=O)c2ncccc2O)C(C)OC(=O)C(c2ccccc2)NC(=O)C2CC(=O)CCN2C(=O)C(Cc2ccc(N(C)C)cc2)N(C)C(=O)C2CCCN2C1=O (centres unmarked) [NSC125176] ({Picolinoyl(3-OH)}-T[Abu]P[ξNMePhe(4-NMe2)][ξPip(4-oxo)][Phg]; ester 1-C; configuration not given here) | -0.47 |
| NC1=NCN([C@@H]2O[C@H](CO)[C@@H](O)[C@H]2O)C(=O)N1 [NSC264880] | -2.01 |
| Cl.O=C1c2cccc(NCCCNCCO)c2C(=O)c2cccc(NCCCNCCO)c21 [NSC363998] | -2.96 |
| Nc1nc(SCCc2ccccc2)c2[nH]cnc2n1 [NSC35866] | -7.39 |
| Cc1c2ccncc2c(C)c2c1sc1ccccc12 [NSC119686] | -46.09 |
| Cc1cc(O)c(C(C)C)cc1C1(c2cc(C(C)C)c(O)cc2C)OC(=O)c2ccccc21 [NSC2186] | -64.59 |
| C/C(=N\N=C(/[Se])N1CC2CCC(CC2)C1)c1ccccn1 [NSC323241] | -23.75 |
| Cc1c(Cl)cccc1NC(=O)c1cccc([N+](=O)[O-])c1O [NSC328477] | -31.70 |
| Cc1ccccc1NC(=O)/C=N/O [NSC625639] | -116.71 |
| CCN1C=C/C(=C\C=C\c2cc[n+](CC)c3ccccc23)c2ccccc21.[I-] [NSC34391] | -25.08 |
| Cc1nc(Nc2ccc(Cl)c(Cl)c2)sc1C(/C=C/c1ccc2c(c1)OCO2)=N/Nc1ccc([N+](=O)[O-])cc1[N+](=O)[O-] [NSC640335] | -79.51 |
| CN(Cc1cnc2nc(N)nc(N)c2n1)c1ccc(C(=O)N[C@@H](CCC(=O)O)C(=O)O)c2ccccc12 [NSC174121] | -134.26 |
| Cc1cc(N(CC(C)Br)CC(C)Br)ccc1N=Nc1ccccc1C(=O)O (centres unmarked) [NSC240419] | -69.26 |
| O=C(Nc1cccc(C(F)(F)F)c1)C(=O)C(C(=O)c1ccc(Cl)c(Cl)c1)C1OC(=O)c2ccccc21 (centres unmarked) [NSC644794] | -17.50 |
| CCCCCCCCCCSCC(CO)NC(=O)/C=C/c1c(C)[nH]c(=O)[nH]c1=O (centres unmarked) [NSC265473] | -39.94 |
| Cc1ccc2c(ccc(C=Cc3ccc(O)c4ncccc34)[n+]2C)c1 [NSC85700] | -37.65 |
| NC(=O)C#CC(N)=O [NSC65381] | 0 |
| CN1CCN(CN2C(=O)C3C4C=CC(C3C2=O)C2C3C(=O)N(CN5CCN(C)CC5)C(=O)C3C42)CC1 (centres unmarked) [NSC361813] | -202.91 |
| Br.CCN(CC)CC(C)(C)C(=O)/C=C/c1ccc(C)cc1 [NSC382766] | -40.98 |
| CON(C)C(=O)C1CCCO1 (centres unmarked) [NSC695218] | -28.71 |
| N[C@@H](Cc1ccc2oc3cc(=O)c4ccccc4c-3nc2c1)C(=O)O [NSC672425] | -0.60 |
| COc1ccc(S(=O)(=O)N/N=C/C(=O)O)cc1 [NSC267213] | -67.55 |
| COC1(O)C(=O)c2ccccc2OC1(OC)c1ccccc1 (centres unmarked) [NSC95848] | -17.43 |
| COc1cc(O)c2c(c1)C(=O)c1cc3c(c(O)c1C2=O)[C@@H](O[C@@H]1O[C@@H](C)[C@H](O)[C@@H](O)[C@H]1OC)[C@H](OC)[C@](C)(O)C3=O [NSC93419] | -51.14 |

| Structure (SMILES) | MEAN CpLDH INHIBITION (%) |
| --- | --- |
| COC(=O)Nc1nc2ccc(Br)cc2[nH]1 [NSC154754] | -36.36 |
| CCOC(=O)c1sc2[n+](c1C)C(=O)/C(=C/c1ccc([N+](=O)[O-])cc1)S2.[Cl-] [NSC658293] | -21.86 |
| O=C1CCC(c2ccccc2)=NN1c1nc2ccccc2s1 [NSC629659] | -32.05 |
| Cc1ccc(S(=O)(=O)c2ccccc2[N+](=O)[O-])cc1 [NSC627708] | -13.84 |
| Cl.NC(=O)c1cn(C2OC(CO)C(O)C2O)c2ncnc(N)c12 (centres unmarked) [NSC143648] | -33.40 |
| CC[C@@]1(O)C[C@H](O[C@H]2C[C@H](N(C)C)[C@H](O[C@H]3C[C@H](O)[C@H](O[C@H]4C[C@H](O)[C@H](O)[C@H](C)O4)[C@H](C)O3)[C@H](C)O2)c2c(cc3c(c2O)C(=O)c2c(O)ccc(O)c2C3=O)[C@H]1C(=O)OC [NSC265211] | -47.33 |
| COc1ccc(C(=O)/C(Br)=C\C(=O)[O-])cc1.[Na+] [NSC104801] | -32.70 |
| Nc1ncnc2c1nnn2[C@@H]1O[C@H](CO)[C@@H](O)[C@H]1O [NSC72961] | -2.40 |
| Cc1[nH]c(=O)[nH]c(=O)c1/C=C/C(=O)NC(CO)CC(C)C (centres unmarked) [NSC224117] | -0.81 |
| Cc1cc(C)c(NC(=O)/C=C/c2ccccc2)c(C)c1 [NSC191384] | -34.30 |
| Oc1ccc(-c2nc3ccccc3s2)cc1 [NSC33004] | -8.80 |
| O=C(O)CC(S)C(=O)O (centres unmarked) [NSC41809] | -14.35 |
| COc1ccc(/C=C2\N=C(c3ccccc3)OC2=O)c(OCc2ccccc2)c1 [NSC262665] | -17.00 |
| C[CH2][Ge]1([CH2]C)[CH2]CC2(CCN(CCCN(C)C)C2)C[CH2]1 [NSC192965] | -81.94 |
| CC1(C)CCC[C@]2(C)C3=C(CC[C@@H]12)C(=O)OC3 [NSC375294] | -39.63 |
| CCNC(=O)OCc1c(COC(=O)NCC)c(-c2ccc(Cl)c(Cl)c2)n2c1CCC2 [NSC267700] | -49.53 |
| O=C(CC1(O)C(=O)Nc2c(Cl)cc(Cl)cc21)c1ccc([N+](=O)[O-])cc1 (centres unmarked) [NSC635326] | -38.78 |
| CCN1CCC(O)(/C=C/c2ccc(C)cc2)C(C(=O)/C=C/c2ccc(C)cc2)C1.Cl (centres unmarked) [NSC657298] | -42.34 |
| C=CCOC1OC(CO[Si](C)(C)C(C)(C)C)C(OCc2ccccc2)C(OCc2ccccc2)C1OCc1ccccc1 (centres unmarked) [NSC624953] | -142.25 |
| CC(C)(O)CCC(O)C(C)(O)C1CCC2(O)C3=CC(=O)C4(O)CC(O)C(O)CC4(C)C3CCC12C.CC(C)(O)CCC(O)C(C)(O)C1CCC2(O)C3=CC(=O)C4CC(O)C(O)CC4(C)C3CCC12C (centres unmarked) [NSC115493] | -100.16 |
| C[C@]12Cc3cnc(-c4ccccc4)nc3C[C@@H]1CC[C@@H]1[C@@H]2CC[C@@]2(C)[C@H]1CC[C@]2(C)O [NSC39863] | -20.27 |
| Nc1nc(N)c2cc(Sc3cccc(C(F)(F)F)c3)ccc2n1 [NSC305782] | -11.03 |
| CCN1/C(=C/C(C)=C/c2sc3ccccc3[n+]2CC)Sc2ccccc21.[I-] [NSC96932] | -8.62 |
